Experimental data reported in patent publication US10640506B2, “Cyclobutyl substituted pyrrolopyridine and pyrrolopyrimidines derivatives as JAK inhibitors” (Incyte Corporation, priority 2010, dated 2020).

What was measured:
[1] = target: human JAK1 (a.a. 837-1142) (Homo sapiens, UniProt P23458); assay: In vitro JAK kinase assay (HTRF, phosphorylation of biotinylated peptide), JAK1; assay type: biochemical; details: Table F; 1 mM ATP
In short: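 His-tagged human JAK1 catalytic domain (a.a. 837-1142), baculovirus/insect-cell expressed, phosphorylates a biotinylated peptide for 1 h at room temperature. Reaction stopped with EDTA; product detected by HTRF (SA-APC, Eu-Py20, 40 min binding). IC50 reported as ranges.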

JAK2 (a.a. 828-1132) = target: T1, JAK2 (a.a. 828-1132) (Homo sapiens, UniProt O60674); assay: In vitro JAK kinase assay (HTRF, phosphorylation of biotinylated peptide), JAK2; assay type: biochemical; details: Table F; 1 mM ATP
T1 construct: JAK2 (a.a. 828-1132); His tag (N)
In short: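 His-tagged catalytic domains of human JAK1 (a.a. 837-1142) and JAK2 (a.a. 828-1132), baculovirus-expressed, phosphorylate a biotinylated peptide for 1 hour at room temperature. Stopped with EDTA; detected by HTRF using SA-APC and Eu-Py20 antibody after 40 min binding; values binned as ranges.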

T1 sequence (O60674 828-1132): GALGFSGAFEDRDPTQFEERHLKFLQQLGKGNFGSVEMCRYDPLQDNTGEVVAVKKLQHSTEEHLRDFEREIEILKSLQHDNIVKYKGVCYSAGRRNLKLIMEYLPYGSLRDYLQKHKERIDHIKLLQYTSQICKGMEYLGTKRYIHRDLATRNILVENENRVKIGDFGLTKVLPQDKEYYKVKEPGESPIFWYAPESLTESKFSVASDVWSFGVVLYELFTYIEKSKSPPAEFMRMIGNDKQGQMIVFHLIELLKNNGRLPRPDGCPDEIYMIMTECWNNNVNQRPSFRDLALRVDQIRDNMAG
Sequence of human JAK1 (a.a. 837-1142) (P23458 849-1154): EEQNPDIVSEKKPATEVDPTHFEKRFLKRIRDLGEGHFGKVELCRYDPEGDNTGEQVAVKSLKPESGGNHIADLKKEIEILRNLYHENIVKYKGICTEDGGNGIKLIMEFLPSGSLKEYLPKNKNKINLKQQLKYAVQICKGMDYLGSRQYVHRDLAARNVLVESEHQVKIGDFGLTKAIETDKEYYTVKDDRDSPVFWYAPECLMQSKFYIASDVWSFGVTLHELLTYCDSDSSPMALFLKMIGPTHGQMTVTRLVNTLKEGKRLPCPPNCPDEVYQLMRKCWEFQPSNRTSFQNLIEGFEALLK

IC50 [1] [nM]	IC50 (JAK2 (a.a. 828-1132)) [nM]	SMILES
< 10	> 100	CN(C)Cc1cc(C#N)cc(C(=O)N2CCN([C@H]3C[C@@](CC#N)(n4cc(-c5ncnc6[nH]ccc56)cn4)C3)CC2)c1 [Example 42, 3-[(4-{cis-3-(cyanomethyl)-3-[4-(7H-pyrrolo[2,3-d]pyrimidin-4-yl)-1H-pyrazol-1-yl]cyclobutyl}piperazin-1-yl)carbonyl]-5-[(dimethylamino)methyl]benzonitrile]
10 to 25	> 100	CN(C)Cc1cc(C#N)cc(CN2CCN([C@H]3C[C@@](CC#N)(n4cc(-c5ncnc6[nH]ccc56)cn4)C3)CC2)c1 [Example 44, 3-[(4-{cis-3-(cyanomethyl)-3-[4-(7H-pyrrolo[2,3-d]pyrimidin-4-yl)-1H-pyrazol-1-yl]cyclobutyl}piperazin-1-yl)methyl]-5-[(dimethylamino)methyl]benzonitrile]
> 100	> 100	CN(C)Cc1cc(CN2CCN([C@H]3C[C@](CC#N)(n4cc(-c5ncnc6[nH]ccc56)cn4)C3)CC2)cc(C(F)(F)F)c1 [Example 45, {trans-3-{4-[3-[(dimethylamino)methyl]-5-(trifluoromethyl)benzyl]piperazin-1-yl}-1-[4-(7H-pyrrolo[2,3-d]pyrimidin-4-yl)-1H-pyrazol-1-yl]cyclobutyl}acetonitrile]
25 to 100	> 100	CN(C)Cc1cc(CN2CCN([C@H]3C[C@@](CC#N)(n4cc(-c5ncnc6[nH]ccc56)cn4)C3)CC2)cc(C(F)(F)F)c1 [Example 46, {cis-3-{4-[3-[(dimethylamino)methyl]-5-(trifluoromethyl)benzyl]piperazin-1-yl}-1-[4-(7H-pyrrolo[2,3-d]pyrimidin-4-yl)-1H-pyrazol-1-yl]cyclobutyl}acetonitrile]
< 10	25 to 100	CNCc1cc(C(=O)N2CCN([C@H]3C[C@](CC#N)(n4cc(-c5ncnc6[nH]ccc56)cn4)C3)CC2)nc(C(F)(F)F)n1 [Example 50, {trans-3-(4-{[6-[(methylamino)methyl]-2-(trifluoromethyl)pyrimidin-4-yl]carbonyl}piperazin-1-yl)-1-[4-(7H-pyrrolo[2,3-d]pyrimidin-4-yl)-1H-pyrazol-1-yl]cyclobutyl}acetonitrile]
< 10	25 to 100	CN(C)Cc1cc(C(=O)N2CCN([C@H]3C[C@](CC#N)(n4cc(-c5ncnc6[nH]ccc56)cn4)C3)CC2)nc(C(F)(F)F)n1 [Example 52, {trans-3-(4-{[6-[(dimethylamino)methyl]-2-(trifluoromethyl)pyrimidin-4-yl]carbonyl}piperazin-1-yl)-1-[4-(7H-pyrrolo[2,3-d]pyrimidin-4-yl)-1H-pyrazol-1-yl]cyclobutyl}acetonitrile]
< 10	25 to 100	N#CC[C@]1(n2cc(-c3ncnc4[nH]ccc34)cn2)C[C@H](N2CCN(C(=O)c3cc(CN)nc(C(F)(F)F)n3)CC2)C1 [Example 54, {trans-3-(4-{[6-(aminomethyl)-2-(trifluoromethyl)pyrimidin-4-yl]carbonyl}piperazin-1-yl)-1-[4-(7H-pyrrolo[2,3-d]pyrimidin-4-yl)-1H-pyrazol-1-yl]cyclobutyl}acetonitrile]
< 10	10 to 25	CC(C)(O)c1cc(C(=O)N2CCN([C@H]3C[C@](CC#N)(n4cc(-c5ncnc6[nH]ccc56)cn4)C3)CC2)nc(C(F)(F)F)n1 [Example 58, {trans-3-(4-{[6-(1-hydroxy-1-methylethyl)-2-(trifluoromethyl)pyrimidin-4-yl]carbonyl}piperazin-1-yl)-1-[4-(7H-pyrrolo[2,3-d]pyrimidin-4-yl)-1H-pyrazol-1-yl]cyclobutyl}acetonitrile]
< 10	25 to 100	CC(C)(O)c1cc(C(=O)N2CCN([C@H]3C[C@@](CC#N)(n4cc(-c5ncnc6[nH]ccc56)cn4)C3)CC2)nc(C(F)(F)F)n1 [Example 59, {cis-3-(4-{[6-(1-hydroxy-1-methylethyl)-2-(trifluoromethyl)pyrimidin-4-yl]carbonyl}piperazin-1-yl)-1-[4-(7H-pyrrolo[2,3-d]pyrimidin-4-yl)-1H-pyrazol-1-yl]cyclobutyl}acetonitrile]
< 10	25 to 100	COCc1cc(C(=O)N2CCN([C@H]3C[C@](CC#N)(n4cc(-c5ncnc6[nH]ccc56)cn4)C3)CC2)nc(C(F)(F)F)n1 [Example 60, {trans-3-(4-{[6-(methoxymethyl)-2-(trifluoromethyl)pyrimidin-4-yl]carbonyl}piperazin-1-yl)-1-[4-(7H-pyrrolo[2,3-d]pyrimidin-4-yl)-1H-pyrazol-1-yl]cyclobutyl}acetonitrile]

The remaining lines, values behind:

SMILES	IC50 [1] [nM]	IC50 (JAK2 (a.a. 828-1132)) [nM]
CCNCc1cc(C(=O)N2CCN([C@H]3C[C@](CC#N)(n4cc(-c5ncnc6[nH]ccc56)cn4)C3)CC2)nc(C(F)(F)F)n1 [Example 47, {trans-3-(4-{[6-[(Ethylamino)methyl]-2-(trifluoromethyl)pyrimidin-4-yl]carbonyl}piperazin-1-yl)-1-[4-(7H-pyrrolo[2,3-d]pyrimidin-4-yl)-1H-pyrazol-1-yl]cyclobutyl}acetonitrile]	< 10	25 to 100
N#CC[C@]1(n2cc(-c3ncnc4[nH]ccc34)cn2)C[C@H](N2CCN(C(=O)c3cc(C(=O)O)nc(C(F)(F)F)n3)CC2)C1 [Example 48, 6-[(4-{trans-3-(cyanomethyl)-3-[4-(7H-pyrrolo[2,3-d]pyrimidin-4-yl)-1H-pyrazol-1-yl]cyclobutyl}piperazin-1-yl)carbonyl]-2-(trifluoromethyl)pyrimidine-4-carboxylic acid]	10 to 25	> 100
N#CC[C@]1(n2cc(-c3ncnc4[nH]ccc34)cn2)C[C@H](N2CCN(C(=O)c3cc(CN4CCC4)nc(C(F)(F)F)n3)CC2)C1 [Example 49, {trans-3-(4-{[6-(azetidin-1-ylmethyl)-2-(trifluoromethyl)pyrimidin-4-yl]carbonyl}piperazin-1-yl)-1-[4-(7H-pyrrolo[2,3-d]pyrimidin-4-yl)-1H-pyrazol-1-yl]cyclobutyl}acetonitrile]	< 10	25 to 100
N#CC[C@]1(n2cc(-c3ncnc4[nH]ccc34)cn2)C[C@H](N2CCN(C(=O)c3cc(CO)nc(C(F)(F)F)n3)CC2)C1 [Example 51, {trans-3-(4-{[6-(hydroxymethyl)-2-(trifluoromethyl)pyrimidin-4-yl]carbonyl}piperazin-1-yl)-1-[4-(7H-pyrrolo[2,3-d]pyrimidin-4-yl)-1H-pyrazol-1-yl]cyclobutyl}acetonitrile]	< 10	25 to 100
N#CC[C@]1(n2cc(-c3ncnc4[nH]ccc34)cn2)C[C@H](N2CCN(C(=O)c3cc(CN4CCCC4)nc(C(F)(F)F)n3)CC2)C1 [Example 53, {trans-3-(4-{[6-(pyrrolidin-1-ylmethyl)-2-(trifluoromethyl)pyrimidin-4-yl]carbonyl}piperazin-1-yl)-1-[4-(7H-pyrrolo[2,3-d]pyrimidin-4-yl)-1H-pyrazol-1-yl]cyclobutyl}acetonitrile]	< 10	25 to 100
CC(C)NCc1cc(C(=O)N2CCN([C@H]3C[C@](CC#N)(n4cc(-c5ncnc6[nH]ccc56)cn4)C3)CC2)nc(C(F)(F)F)n1 [Example 55, {trans-3-(4-{[6-[(isopropylamino)methyl]-2-(trifluoromethyl)pyrimidin-4-yl]carbonyl}piperazin-1-yl)-1-[4-(7H-pyrrolo[2,3-d]pyrimidin-4-yl)-1H-pyrazol-1-yl]cyclobutyl}acetonitrile]	< 10	25 to 100
N#CC[C@]1(n2cc(-c3ncnc4[nH]ccc34)cn2)C[C@H](N2CCN(C(=O)c3cc(CNC4CCC4)nc(C(F)(F)F)n3)CC2)C1 [Example 56, {trans-3-(4-{[6-[(cyclobutylamino)methyl]-2-(trifluoromethyl)pyrimidin-4-yl]carbonyl}piperazin-1-yl)-1-[4-(7H-pyrrolo[2,3-d]pyrimidin-4-yl)-1H-pyrazol-1-yl]cyclobutyl}acetonitrile]	< 10	25 to 100
CC(C)(C)NCc1cc(C(=O)N2CCN([C@H]3C[C@](CC#N)(n4cc(-c5ncnc6[nH]ccc56)cn4)C3)CC2)nc(C(F)(F)F)n1 [Example 57, {trans-3-(4-{[6-[(tert-butylamino)methyl]-2-(trifluoromethyl)pyrimidin-4-yl]carbonyl}piperazin-1-yl)-1-[4-(7H-pyrrolo[2,3-d]pyrimidin-4-yl)-1H-pyrazol-1-yl]cyclobutyl}acetonitrile]	< 10	10 to 25
N#CC[C@]1(n2cc(-c3ncnc4[nH]ccc34)cn2)C[C@H](N2CCN(C(=O)c3cc(C4(N)CCC4)nc(C(F)(F)F)n3)CC2)C1 [Example 61, {trans-3-(4-{[6-(1-aminocyclobutyl)-2-(trifluoromethyl)pyrimidin-4-yl]carbonyl}piperazin-1-yl)-1-[4-(7H-pyrrolo[2,3-d]pyrimidin-4-yl)-1H-pyrazol-1-yl]cyclobutyl}acetonitrile]	< 10	< 10
N#CC[C@]1(n2cc(-c3ncnc4[nH]ccc34)cn2)C[C@@H](N2CCN(C(=O)c3cc(C4(N)CCC4)nc(C(F)(F)F)n3)CC2)C1 [Example 62, {cis-3-(4-{[6-(1-aminocyclobutyl)-2-(trifluoromethyl)pyrimidin-4-yl]carbonyl}piperazin-1-yl)-1-[4-(7H-pyrrolo[2,3-d]pyrimidin-4-yl)-1H-pyrazol-1-yl]cyclobutyl}acetonitrile]	< 10	< 10
CN(C)C1(c2cc(C(=O)N3CCN([C@H]4C[C@](CC#N)(n5cc(-c6ncnc7[nH]ccc67)cn5)C4)CC3)nc(C(F)(F)F)n2)CCC1 [Example 63, {trans-3-(4-{[6-[1-(dimethylamino)cyclobutyl]-2-(trifluoromethyl)pyrimidin-4-yl]carbonyl}piperazin-1-yl)-1-[4-(7H-pyrrolo[2,3-d]pyrimidin-4-yl)-1H-pyrazol-1-yl]cyclobutyl}acetonitrile]	< 10	25 to 100
